Literature values in article PMC3725996 (Bioorganic & medicinal chemistry letters, 2010).

Columns and labels:
[1] = tested on: extracellular DA in rat nucleus accumbens; conditions: following acute or repeated nicotine administration, ref [16]
[2] = tested on: nicotine self-administration; conditions: rats; ref [17]

SMILES: Cc1ccc[n+](CCCCCCCCCCCC[n+]2cccc(C)c2)c1.[Br-].[Br-] [bPiDDB 1, N,N′-dodecane-1,12-diyl-bis-3-picolinium dibromide]
- Oral bioavailability (oral route, ref Albayati et al., unpublished data): limited bioavailability when given by the oral route
- Brain bioavailability (subcutaneous delivery, 14C-bPiDDB, ref [19]–[20]): brain-bioavailable after subcutaneous delivery
- Effect on increase in extracellular DA in nucleus accumbens [1]: dose-dependently reduced the increase in extracellular DA
- Effect on nicotine self-administration [2]: dose-dependently decreased nicotine self-administration
- Effect on sucrose-maintained responding [2]: but not sucrose-maintained responding
